Results reported in paper PMC13622972 (Antiviral research, 2022).
Positions of bridges follow the written chain, without caps; N, C: chain ends. Residues, ends and D or L forms follow the SMILES beside them.

Legend:
[1] = test system: pseudotyped Marburg virus (MARV)
[2] = test system: wild type Ebola virus Zaire; settings: 36 h
[3] = test system: pseudotyped Vesicular stomatitis virus (VSV); assay type: cell-based
[4] = test system: pseudotyped Ebola virus (EBOV)

Row | SMILES | IC50 [1] | IC50 [2] | Activity against the pseudotyped VSV virus [3] | IC50 [4]
1 | CC(C)[C@@H]1NC(=O)[C@H](Cc2ccccc2)NC(=O)[C@H](Cc2ccccc2)NC(=O)[C@H](CC(=O)O)NC(=O)[C@H](CC(=O)O)NC(=O)CNC(=O)[C@H](CCCCN)NC(=O)[C@@H](NC(=O)[C@@H](N)Cc2c[nH]cn2)CSSC[C@@H](C(=O)N[C@@H](Cc2ccc(O)cc2)C(=O)O)NC(=O)[C@H](C)NC(=O)[C@H](Cc2ccc(O)cc2)NC1=O [erp1c, HCKGDDFFVYACY] (H-HCKGDDFFVYACY-OH; disulfide 2-12 (inferred); N-terminus and C-terminus assumed) | 28.5 µM | 10.5 µM | no activities | 12.3 µM
2 | C[C@@H](O)[C@@H]1NC(=O)CNC(=O)[C@@H](N)CSSC[C@@H](C(=O)O)NC(=O)[C@H](Cc2ccc(O)cc2)NC(=O)[C@H](Cc2ccc(O)cc2)NC(=O)[C@H](Cc2ccc(O)cc2)NC(=O)[C@H](Cc2ccccc2)NC1=O [m78abc, CGTFYYYC] (H-CGTFYYYC-OH; disulfide 1-8 (inferred); N-terminus and C-terminus assumed) | 12.5 µM |  | no activities | 16.1 µM
3 | CC(C)[C@@H]1NC(=O)[C@H](Cc2ccccc2)NC(=O)CNC(=O)[C@H](CO)NC(=O)[C@@H](N)CSSC[C@@H](C(=O)O)NC(=O)[C@H](Cc2c[nH]c3ccccc23)NC(=O)[C@H](CCC(=O)O)NC1=O [m191abc, CSGFVEWC] (H-CSGFVEWC-OH; disulfide 1-8 (inferred); N-terminus and C-terminus assumed) | 8.5 µM |  | no activities | 37.2 µM
